Patent US5753704A, “Therapeutic compositions comprising unsaturated dioic acids or derivatives thereof” (Unichema Chemie B.V., priority 1992, dated 1998)
Entries after “also recorded” stand apart in the source; their conditions may differ.

Key:
[1] = test system: Candida albicans; test: MIC, agar dilution technique (Table 3); type: cell-based; details: Candida albicans ATCC 18804
[2] = test system: Escherichia coli; test: MIC, agar dilution technique (Table 3); type: cell-based; details: Escherichia coli ATCC 25922
Protocol: (§1) The Minimum Inhibitory Concentration (MIC) of each of various unsaturated dicarboxylic acid mixtures was determined in the presence and absence of 10% Intralipid (Kabi Pharmacia, Inc.) using the agar dilution technique for susceptibility of 32 strains of Propionibacterium acnes and of 32 strains of various genera of aerobic bacteria. The method was as set out below.
(§2) A 5% stock solution for each agent was prepared by adding 10 grams of the dioic acid material to 200 milliliters of double strength Tryptic Soy Broth (TSB), (Baltimore Biological Laboratories). The pH of each solution was adjusted to 7.0±0.2 with sodium hydroxide.
(§3) For each organic acid two sets of 200 ml capacity bottle/flasks were numbered 1 to 9. To each bottle was added 50 cc of double strength TSB. From the 5% stock solution, 50 cc of TSB were transferred to bottles #1 and #2. Serial transfers of 50 cc are made from bottle #2 through to bottle #8. Bottle #9 of each set contained only 50 cc of double strength TSB, without any dicarboxylic acid. To all 18 bottles were added 2 grams of granulated agar (BBL).
(§4) All bottles were autoclaved at 121° C., 15 psi for 15 minutes and then held at 50° C. in a water bath.
(§5) To one set of bottles #1-9 were added 50 cc of hot, sterile water. The bottles were swirled to mix the contents and 25 cc was poured into each of four petri dishes and allowed to solidify. To the second set of bottles were added 50 cc of Intralipid (pre-warmed to 50° C). The contents were then mixed and poured as above. Standard inocula of the test organisms were prepared by matching the bacterial suspension in 0.85% PSS (physiological saline solution) to a 0.5 McFarland Standard and diluting ten-fold to yield 10^7 CFU (colony forming units). The inocula were loaded into 32 wells of a steers replicator. The multi-prong inoculator delivers 0.001 to 0.002 cc resulting in a final inoculum of 10^4 CFU per spot.
(§6) Plates were inoculated from the lowest to highest concentration (to reduce the effects of "carry-over" of the inoculum), and allowed to dry. The plates were then inverted and incubated at 35° C. for 24 hours. Plates inoculated with Propionibacterium acnes strains were incubated under anaerobic conditions for seven days at 35° C.
(§7) The agent-free control plates (#9) were examined at the end of the incubation for viability and signs of contamination. End-point MIC values were determined by observing the plate of lowest concentration of agent that inhibited visible micro-organism growth.

[3] = test system: Staphylococcus aureus; test: MIC, agar dilution technique (Table 3); type: cell-based
Protocol: as §1, §2, §3, §4, §5, §6, §7

[4] = test system: Micrococcus sedentarius; test: MIC, agar dilution technique (Table 3); type: cell-based; details: Micrococcus sedentarius ATCC 27574
Protocol: as §1, §2, §3, §4, §5, §6, §7

[5] = test system: Corynebacterium minutissium; test: MIC, agar dilution technique (Table 3); type: cell-based
Protocol: as §1, §2, §3, §4, §5, §6, §7

[6] = test system: Propionibacterium acnes; test: MIC, agar dilution technique (Table 3); type: cell-based
Protocol: as §1, §2, §3, §4, §5, §6, §7

[7] = test system: Pseudomonas aeruginosa; test: MIC, agar dilution technique (Table 3); type: cell-based; details: Pseudomonas aeruginosa ATCC 27853
Protocol: as §1, §2, §3, §4, §5, §6, §7

[8] = test system: Staphylococcus epidermidis; test: MIC, agar dilution technique (Table 3); type: cell-based
Protocol: as §1, §2, §3, §4, §5, §6, §7

[9] = test system: Brevibacterium epidermidis; test: MIC, agar dilution technique (Table 3); type: cell-based
Protocol: as §1, §2, §3, §4, §5, §6, §7

[10] = test system: Micrococcus luteus; test: MIC, agar dilution technique (Table 3); type: cell-based
Protocol: as §1, §2, §3, §4, §5, §6, §7

[11] = test system: P. ACNES ATCC 25746; test: MIC's for long chain dioic acids against P. acnes (Table 4); type: cell-based, Propionibacterium acnes; details: for MIC: P. acnes ATCC 25746
Protocol: as §1, §2, §3, §4, §5
Plates were inoculated from the lowest to highest concentration (to reduce the effects of "carry-over" of the inoculum), and allowed to dry. The plates were then inverted and incubated at 35° C. for 24 hours. […]
as §7
A similar experiment was performed, using the same method, to compare the degree of inhibitory activity (for P. acnes) of azelaic acid, the C18:1 dioic acid (obtained from a substrate comprising oleic acid), a mixture of C18.1 fatty (mono-carboxylic) acid, the corresponding C18:1 and C18:2 dioic acids (obtained from a substrate comprising Linoleic acid), and the C16:1 dioic acid (obtained from a substrate comprising palmitoleic acid). The MICs for azelaic acid and the C18.1 dioic acid were essentially as before, confirming the previous results. The corresponding fatty acid had very little activity.
In experiment 4, the degree of inhibition of the azelaic acid control, and therefore of the test samples also, was slightly less than that observed in previous experiments.

[12] = test system: thioredoxin reductase; details: cited from earlier work
[13] = test system: 32 strains of Propionibacterium acnes and 32 strains of various genera of aerobic bacteria; test: Antimicrobial activity, summary over the range of micro-organisms; type: cell-based
Protocol: as §1, §2
as §3, with “(BBL). […]” for “(BBL).”
The agent-free control plates (#9) were examined at the end of the incubation for viability and signs of contamination. End-point MIC values were determined by observing the plate of lowest concentration of agent that inhibited visible micro-organism growth. […]

[14] = Staphylococcus aureus ATCC 25923
[15] = Staphylococcus aureus ATCC 29213
[16] = Staphylococcus aureus ATCC 35556
[17] = Corynebacterium minutissium ATCC 23347
[18] = Corynebacterium minutissium ATCC 23348
[19] = Corynebacterium minutissium ATCC 23349
[20] = Propionibacterium acnes ATCC 6919
[21] = Propionibacterium acnes ATCC 29399
[22] = Staphylococcus epidermidis ATCC 14490
[23] = Staphylococcus epidermidis ATCC 31432
[24] = Staphylococcus epidermidis ATCC 35894
[25] = Brevibacterium epidermidis ATCC 35514
[26] = Brevibacterium epidermidis NCDO 2285
[27] = Expt. 4, increased incubation period of 18 days

O=C(O)CCCCCCCC(=O)O [Azelaic acid, azelaic acid, reference compound]
MIC [1]: > 2.5%
MIC [2]: 2.5%
MIC [3, 14]: 2.5%
MIC [3, 15]: 2.5%
MIC [3, 16]: 2.5%
MIC [4]: 2.5%
MIC [5, 17]: > 2.5%
MIC [5, 18]: > 2.5%
MIC [5, 19]: > 2.5%
MIC [6, 20]: 1.25%
MIC [6, 21]: 1.25%
MIC [7]: > 2.5%
MIC [8, 22]: > 2.5%
MIC [8, 23]: > 2.5%
MIC [8, 24]: > 2.5%
MIC [9, 25]: > 2.5%
MIC [9, 26]: > 2.5%
MIC ([10]; Micrococcus luteus ATCC 9341): > 2.5%
MIC ([10]; Micrococcus luteus ATCC 15957): > 2.5%
MIC ([10]; Micrococcus luteus ATCC 27141): 2.5%
MIC ([11]; Expt. 1, incubation 7 days): 5%
MIC ([11]; Expt. 2, incubation 7 days): 5%
MIC ([11]; Expt. 3, incubation 7 days): 5%
MIC [11, 27]: > 5%
inhibition of thioredoxin reductase [12]: inhibits thioredoxin reductase

O=C(O)CCCCCC=CCCCCCCCC(=O)O [C16:1 dioic acid ex Palmitoleic acid]
MIC [11, 27]: 0.16%

CCCCCCCC/C=C\CCCCCCCC(=O)O [C18:1 Fatty acid, oleic acid, reference compound]
inhibitory activity compared with azelaic acid ([11]; P. acnes): less active than azelaic acid
MIC ([11]; Expt. 3, incubation 7 days): > 5%

O=C(O)CCCCCCC/C=C\CCCCCCCC(=O)O [C18:1 dioic acid ex Oleic acid]
MIC [1]: > 2.5%
MIC ([1]; + "Intralipid"): > 2.5%
MIC [2]: > 2.5%
MIC ([2]; + "Intralipid"): > 2.5%
MIC [3, 14]: 0.07%
MIC ([3]; Staphylococcus aureus ATCC 25923, + "Intralipid"): 0.15%
MIC [3, 15]: 0.15%
MIC ([3]; Staphylococcus aureus ATCC 29213, + "Intralipid"): 0.31%
MIC [3, 16]: 0.07%
MIC ([3]; Staphylococcus aureus ATCC 35556, + "Intralipid"): 0.31%
MIC [4]: 0.15%
MIC ([4]; + "Intralipid"): 0.07%
MIC [5, 17]: 0.15%
MIC ([5]; Corynebacterium minutissium ATCC 23347, + "Intralipid"): 0.15%
MIC [5, 18]: 0.15%
MIC ([5]; Corynebacterium minutissium ATCC 23348, + "Intralipid"): 0.15%
MIC [5, 19]: 0.15%
MIC ([5]; Corynebacterium minutissium ATCC 23349, + "Intralipid"): 0.15%
MIC [6, 20]: 0.04%
MIC ([6]; Propionibacterium acnes ATCC 6919, + "Intralipid"): 0.02%
MIC [6, 21]: 0.04%
MIC ([6]; Propionibacterium acnes ATCC 29399, + "Intralipid"): 0.02%
MIC [7]: > 2.5%
MIC ([7]; + "Intralipid"): > 2.5%
MIC [8, 22]: 0.31%
MIC ([8]; Staphylococcus epidermidis ATCC 14490, + "Intralipid"): 0.31%
MIC [8, 23]: 0.31%
MIC ([8]; Staphylococcus epidermidis ATCC 31432, + "Intralipid"): 0.31%
MIC [8, 24]: 0.31%
MIC ([8]; Staphylococcus epidermidis ATCC 35894, + "Intralipid"): 0.31%
MIC [9, 25]: 0.15%
MIC ([9]; Brevibacterium epidermidis ATCC 35514, + "Intralipid"): 0.15%
MIC [9, 26]: 0.15%
MIC ([9]; Brevibacterium epidermidis NCDO 2285, + "Intralipid"): 0.15%
MIC ([10]; Micrococcus luteus ATCC 9341): 0.15%
MIC ([10]; Micrococcus luteus ATCC 9341, + "Intralipid"): 0.07%
MIC ([10]; Micrococcus luteus ATCC 15957): 0.15%
MIC ([10]; Micrococcus luteus ATCC 15957, + "Intralipid"): 0.07%
MIC ([10]; Micrococcus luteus ATCC 27141): 0.15%
MIC ([10]; Micrococcus luteus ATCC 27141, + "Intralipid"): 0.07%
effect of the presence or absence of "Intralipid" on MIC ([13]; 10% Intralipid, listed as C18:1 mono-unsaturated compound): increased the MIC for taph. aureus; also recorded: decreased the MIC for P. acnes and M. luteus
anti-microbial activity compared with azelaic acid ([13]; Table 3 micro-organisms): many times greater than that for azelaic acid
MIC ([11]; Expt. 1, incubation 7 days): 0.04%
MIC ([11]; Expt. 2, incubation 7 days): 0.04%
MIC ([11]; Expt. 3, incubation 7 days): 0.04%
MIC [11, 27]: 0.08%
activity relative to azelaic acid ([11]; P. acnes, fold of the activity of azelaic acid): ~100 ×
